Assay results as given in US20130064821A1, “METHODS AND COMPOSITIONS FOR TREATING PROSTATE CANCER” (priority 2007, published 2013).

Tests used:
[1] = test system: LNCaP cells, secreted PSA; experiment: PSA production and secretion study in LNCaP cells with T and DHT (Example 7, PSA ELISA); format: cell-based, human; conditions: 0.1 nM androgen, 120 hours, versus 5% CSS media alone, mean of 6 wells
Protocol: The effects of the polypeptide on the production and secretion of the prostate specific antigen, PSA, was then assessed.
The human prostate cancer cell line, LNCaP was obtained from American Type Tissue Collection (ATCC) and was routinely cultured in growth medium containing phenol red RPMI 1640 (Invitrogen, Auckland, New Zealand) supplemented with 10% fetal bovine serum (FBS, GIBCO) and 1% antibiotic/antimycotic mixture (Invitrogen, Auckland, New Zealand). Cells were maintained at 37° C. in 5% CO2. Dilutions were made for the polypeptide (20 ng/ml) in 5% charcoal strip serum (CSS, HyClone) for in vitro experiments.
3×10^3 LNCaP cells were plated per well in quadruplicate in a Falcon 96-well plate and allowed to attach overnight at 5% CO2/37° C. in growth medium (as indicated above). The medium was replaced with fresh complete growth medium after 36 hours. […] After 120 hours in culture, cell culture media was collected from each well and a PSA reading was measured in duplicate for each well. Human PSA was measured according to the manufacturers methodology using the PSA ELISA from Diagnostic Systems Laboratories (Cat number: DSL-10-9700).
Data are presented as means unless otherwise indicated.

[2] = test system: LNCaP cells, secreted PSA; experiment: PSA production and secretion study in LNCaP cells (Example 6, PSA ELISA); format: cell-based, human; conditions: 0.1 nM DHT, 120 hours, versus 5% CSS media alone
Protocol: A human hormone sensitive prostate cancer cell line, LNCaP (ATCC), was exposed to a polypeptide as described in Example 1. The effects of the polypeptide on the production and secretion of the prostate specific antigen, PSA, was then assessed.
The human prostate cancer cell line, LNCaP was obtained from American Type Tissue Collection (ATCC) and was routinely cultured in growth medium containing phenol red RPMI 1640 (Invitrogen, Auckland, New Zealand) supplemented with 10% fetal bovine serum (FBS, 15 GIBCO) and 1% antibiotic/antimycotic mixture (Invitrogen, Auckland, New Zealand). Cells were maintained at 37° C. in 5% CO2. Dilutions were made for the polypeptide (20 ng/ml) in 5% charcoal strip serum (CSS, HyClone) for in vitro experiments.
3×10^3 LNCaP cells were plated per well in quadruplicate in a Falcon 96-well plate and allowed to attach overnight at 5% CO2/37° C. in growth medium (as indicated above). The medium was replaced with fresh complete growth medium after 36 hours. […] After 120 hours in culture, cell culture media was collected from each well and PSA reading was measured in duplicate for each well. Human PSA was measured according to the manufacturers methodology using the PSA ELISA from Diagnostic Systems Laboratories (cat number: DSL-10-9700).
Data are presented as means unless otherwise indicated. Error bars represent the 95% confidence intervals.

albumin = albumin (Homo sapiens, UniProt P02768); conditions: serum, men; cited from earlier work
Sequence of albumin (P02768 25-609): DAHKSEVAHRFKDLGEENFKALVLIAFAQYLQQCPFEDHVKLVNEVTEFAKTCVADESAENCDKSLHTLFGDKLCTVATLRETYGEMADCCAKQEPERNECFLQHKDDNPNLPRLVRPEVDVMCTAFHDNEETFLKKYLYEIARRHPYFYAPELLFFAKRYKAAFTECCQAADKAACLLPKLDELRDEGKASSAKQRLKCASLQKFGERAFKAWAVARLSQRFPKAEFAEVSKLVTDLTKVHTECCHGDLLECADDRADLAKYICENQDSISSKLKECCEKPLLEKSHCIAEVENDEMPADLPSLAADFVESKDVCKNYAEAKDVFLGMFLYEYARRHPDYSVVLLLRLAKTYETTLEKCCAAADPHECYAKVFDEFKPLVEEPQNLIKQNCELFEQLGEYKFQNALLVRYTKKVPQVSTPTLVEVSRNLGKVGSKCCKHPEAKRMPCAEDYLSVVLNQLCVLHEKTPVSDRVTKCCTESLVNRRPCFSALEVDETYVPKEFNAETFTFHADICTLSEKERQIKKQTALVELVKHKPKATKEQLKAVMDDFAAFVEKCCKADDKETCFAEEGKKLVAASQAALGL

[3] = target: T1, sex hormone binding globulin (SHBG) (Homo sapiens, UniProt P04278); conditions: serum, men; cited from earlier work
T1 sequence (P04278 30-402): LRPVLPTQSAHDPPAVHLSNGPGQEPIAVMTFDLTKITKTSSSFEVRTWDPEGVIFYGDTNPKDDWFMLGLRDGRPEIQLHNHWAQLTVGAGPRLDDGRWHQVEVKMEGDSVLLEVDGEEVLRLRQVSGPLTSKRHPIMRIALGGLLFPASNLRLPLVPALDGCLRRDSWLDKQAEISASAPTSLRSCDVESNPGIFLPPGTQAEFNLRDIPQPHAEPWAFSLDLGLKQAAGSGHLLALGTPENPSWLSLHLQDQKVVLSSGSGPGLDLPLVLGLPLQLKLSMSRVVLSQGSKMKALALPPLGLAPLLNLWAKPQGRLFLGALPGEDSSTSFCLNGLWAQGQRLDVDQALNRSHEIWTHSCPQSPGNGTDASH

LNCaP cells = experiment: In vitro growth proliferation study of LNCaP cells, calcein fluorescence assay; format: cell-based, human; conditions: nilutamide 0.1 μM, 5 days (120 hours), mean of six wells
Protocol: A human hormone sensitive prostate cancer cell line, LNCaP1 was exposed to the AR-LBD-IgG1 FC fusion protein as described in Example 1. The effects of the polypeptide on the growth and proliferation of the cells was then assessed.
In addition, LNCaP cells were also cultured in the presence of the non-steroidal antiandrogen nilutamide
The human prostate cancer cell line, LNCaP was obtained from American Type Tissue Collection (ATCC) and was routinely cultured in growth medium containing phenol red RPM1 1640 (Invitrogen, Auckland, New Zealand) supplemented with 10% fetal bovine serum (FBS1 G1BCO) and 1% antibiotic/antimycotic miyture (Invitrogen, Auckland, New Zealand). Cells were maintained at 37° C. in 5% CO2.
2×10^3 LNCaP cells were plated per well in a Falcon 96-well plate in 5% CO2/37° C. in growth medium in growth medium containing phenol red RPMI 1640 (Invitrogen, Auckland, New Zealand) supplemented with 10% fetal bovine serum (FBS, G1BCO) and 1% antibiotic/antimycotic mixture (Invitrogen, Auckland, New Zealand). Cells were treated with either AR-LBD IgG1 Fc fusion protein (12 ng/ml ) or IgG1 Fc control protein (12 ng/ml). […] Calcein positive cells were detected using a FLUOstar OPTIMA plate reader (BMG Labtech, Victoria, Australia). […]

C[C@]12CCC(=O)C[C@@H]1CC[C@@H]1[C@@H]2CC[C@]2(C)[C@@H](O)CC[C@@H]12 [DHT, dihydrotestosterone]
effect of androgen on secreted PSA [1]: strongly boost production of secreted PSA | effect of androgen on secreted PSA [2]: significantly boost production of secreted PSA

C[C@]12CC[C@H]3[C@@H](CCC4=CC(=O)CC[C@@]43C)[C@@H]1CC[C@@H]2O [Testosterone, testosterone]
association constant (Ka) with albumin (albumin): about 3×10^4 L/mol | effect of androgen on secreted PSA [1]: clearly increase production of PSA | association constant (Ka) with SHBG [3]: about 1×10^9 L/mol

CC1(C)NC(=O)N(c2ccc([N+](=O)[O-])c(C(F)(F)F)c2)C1=O [nilutamide]
reduction of prostate cancer cell proliferation (LNCaP cells): 80%
